Test [1] deals with dopaminergic neurons differentiated from iPSC derived from disseminated PD patients. Put plainly: cell viability (cell titer glo) of iPSC differentiated dopaminergic neurons. The class given is cell-based, human. Particulars: II-23 0.6 μM, ACA 0.5 μM, from day 15 of culture; CTG kit. The procedure:
Using normal and disseminated PD patient-derived induced pluripotent stem cells (iPSC), performing drug interventions using the TRPM2 inhibitors ACA and II-23 after they were induced and differentiated into mature dopaminergic neurons, the drug treating method is as follows: • a. Calculating the materials for the experiment, and starting preparing when the dopaminergic neurons are differentiated to the 8th day. The petri dishes should be treated with 33 μg/mL PDL overnight and washed with sterilized water. After drying, 2 μg/mL of laminin was added and incubated overnight. Both PDL and laminin can be recycled for reuse. • b. Digesting and collecting the differentiated cells with Accutase, and counting with a cell counting plate, and then diluting to 500,000/mL with maturation medium (Y-27632 should be added). Fluorescence confocal imaging was performed using a confocal dish inoculated with 2 mL/dish, and cell viability assays were performed using a 96-well plate inoculated with 100 μL/well. Taking this time point as the 10th day, changing to Y-27632-free medium on the 11th day, and changing the medium every two days. • c. When the cells were cultured to the 15th day, treating the drugs to a final concentration with the medium, the working concentration of ACA is 0.5 μM, and the working concentration of II-23 is 0.6 μM, and the drug-containing medium was changed every four days. […]
Background: ATP-based viability assays read luminescence as a measure of living cells.

Test [2] deals with C57BL/6 mice, transient middle cerebral artery occlusion (tMCAO). Put plainly: mouse tMCAO cerebral stroke model (Embodiment 69). The class given is in vivo. Particulars: 3 mg/kg tail vein injection 3 h after reperfusion. From the text:
After isoflurane inhalation gas anesthesia of 22-25 g male C57BL/6 mice, the fiber-optic probes of a laser Doppler flowmeter were fixed to the skull of the mice with glue for monitoring the cerebral blood flow of the middle cerebral artery (MCA) supplying cortex. The mice were fixed in the supine position, and the middle of the neck was dehaired and routinely sterilized with 75% alcohol. An approximately 1.5 cm incision was made in the middle of the neck, and the skin of the neck was incised, and the muscle and fascia were separated along the inner edge of the sternocleidomastoideole; the right carotid artery sheath was bluntly separated to expose the right common carotid artery (CCA), external carotid artery (ECA), and internal carotid artery (ICA); after the surgical area was exposed satisfactorily, the CCA and ICA were temporarily clipped with arterial clips, and a small incision was made at the proximal end of the ECA with microsurgical scissors, and a nylon monofilament suture was inserted from the small incision along the ECA, and gently pushed into the intracranial area in the direction of the ICA for about 11.5±0.5 mm, blocking the beginning of the middle cerebral artery. Only the animals whose blood flow values decreased to 20% of the basic value were selected according to the blood flow data monitored by the flowmeter. After 90 minutes of ischemia, the monofilament sutures were gently withdrawn out, the arterial stumps were tied tightly, the surgical wounds were inspected, the bleeding was thoroughly stopped, a small amount of penicillin powder was sprinkled locally to prevent infection, and the subcutaneous tissues and the skin were sutured layer by layer, thus completing the ischemia reperfusion injury model. A heating plate was used to maintain the body temperature of the animals during surgery. After completion of the surgery, the sutured mice were placed in a heat preservation and humidification box until the mice recovered activities. Animals in the sham-operated group were subjected to the same surgical procedure but without middle artery occlusion.
Clean-grade male C57BL/6 mice were randomly divided into five groups, namely, the sham-operated group, the group of the positive control drug Edaravone(3 mg/kg), and the 3 mg/kg dose group of compounds II-1, II-23 and III-1.
The mice were subjected to tail vein injections of Edaravone, II-1, II-23, and III-1 respectively 3 h after modeling and reperfusion; the sham-operated group was injected with an equal volume of saline, and II-1, II-23, III-1, and Edaravone were dissolved in 0.9% saline solution. Neurological function scores and TTC staining of mice were performed 24 h after ischemia-reperfusion, and the results are shown in FIGS. 6, 7 and 8.
The mice were decapitated 24 h after ischemia-reperfusion, the coronal planes of the brains were cut into brain slices of about 2 mm thickness uniformly. The brain slices were placed in 0.25% 2,3,5-triphenyltetrazolium chloride (TTC) solution, incubated at 37° C. Celsius for 30 minutes away from light, stained, and fixed in 4% paraformaldehyde neutral buffer (pH 7.4) overnight. The processed brain slices were photographed using a macro camera, and Image J image analysis software was used to calculate and count the cerebral infarct volume, and the measured results are shown in FIG. 7. The formula for calculating the percentage of infarct volume was (sum of the left uninfarcted area −sum of the right uninfarcted area)/sum of the left uninfarcted area×100%.
According to the five-level, four-point standard of score, the mortality and neuromotor dysfunction scores of each group of mice were performed, and the results are shown in FIG. 8. […]

One compound from patent publication US20240228487A1, “FUSED HETEROCYCLIC COMPOUND AND APPLICATION THEREOF, PHARMACEUTICAL COMPOSITIONS CONTAINING SAME AND APPLICATION THEREOF” (ZHEJIANG UNIVERSITY, priority 2021, published 2024) can be followed below.

For `CCN(CC)C(=O)c1cc(C(=O)c2ccccc2)n2cccc2c1` [II-23, 5-Benzoyl-N, N-diethylindolizine-7-formamide], the “cell viability of differentiated dopaminergic neurons derived from disseminated PD patients” value in test [1] was “restored”. In addition, the “area of cerebral infarction caused by tMCAO” value in test [2] (TTC staining 24 h after ischemia-reperfusion) is “significantly reduced”. The “neuromotor dysfunction scores caused by tMCAO” value in test [2] (scored 24 h after ischemia-reperfusion) is “significantly reduced”.
